The results in this text go back to ChEMBL document CHEMBL1156089, “Anthranilic sulfonamide CCK1/CCK2 dual receptor antagonists I: discovery of CCKR1 selectivity in a previously CCKR2-selective lead series” (Bioorg Med Chem Lett, 2009).

Assay [1] concerns the target T1, Gastrin/cholecystokinin type B receptor (Homo sapiens, UniProt P32239).
T1 sequence (P32239 whole entry): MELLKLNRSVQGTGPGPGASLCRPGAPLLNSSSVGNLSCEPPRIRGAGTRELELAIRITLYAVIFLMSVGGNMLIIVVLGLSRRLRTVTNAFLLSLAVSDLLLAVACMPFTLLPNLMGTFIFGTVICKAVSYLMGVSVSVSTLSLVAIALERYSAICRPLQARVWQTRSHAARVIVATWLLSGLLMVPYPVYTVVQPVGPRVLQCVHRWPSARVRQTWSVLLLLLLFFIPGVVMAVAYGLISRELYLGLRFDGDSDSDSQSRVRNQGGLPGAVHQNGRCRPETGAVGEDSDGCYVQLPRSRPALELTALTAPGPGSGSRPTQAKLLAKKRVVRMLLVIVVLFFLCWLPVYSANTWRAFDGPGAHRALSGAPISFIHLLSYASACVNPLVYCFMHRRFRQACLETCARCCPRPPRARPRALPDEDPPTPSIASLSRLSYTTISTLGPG
In words: Displacement of [125I]-CCK-8S from CCK2R after 100 mins by liquid scintillation counting. In general terms: Displacement assays read how much labelled ligand stays bound in the presence of the test substance.

Assay [2] concerns the target T2, Cholecystokinin receptor type A (Homo sapiens, UniProt P32238).
T2 sequence (P32238 whole entry): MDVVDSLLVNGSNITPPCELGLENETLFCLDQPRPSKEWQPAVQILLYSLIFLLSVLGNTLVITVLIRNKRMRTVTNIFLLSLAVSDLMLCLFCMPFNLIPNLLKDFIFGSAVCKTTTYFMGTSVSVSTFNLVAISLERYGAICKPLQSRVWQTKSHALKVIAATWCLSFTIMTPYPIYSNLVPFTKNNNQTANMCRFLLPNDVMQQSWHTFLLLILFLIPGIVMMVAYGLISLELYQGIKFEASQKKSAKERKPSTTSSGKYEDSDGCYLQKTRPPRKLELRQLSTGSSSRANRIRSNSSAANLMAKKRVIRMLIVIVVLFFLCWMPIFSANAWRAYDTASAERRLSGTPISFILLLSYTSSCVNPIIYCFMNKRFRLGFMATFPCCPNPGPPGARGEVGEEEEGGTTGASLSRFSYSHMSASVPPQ
Briefly: Displacement of [125I]-CCK-8S from CCK1R after 100 mins by liquid scintillation counting.

A word on the Ki: it is a measure of affinity in units of concentration, obtained from inhibition or displacement. A low value points to a stronger hold on the target. In the case of `CC(C)(c1ccc(Cl)cc1)[C@H](NC(=O)c1ccc(Cl)cc1NS(=O)(=O)c1cccc2nsnc12)C(=O)O`, in assay [1], the affinity, expressed as Ki, was 1 µM.
As for `CN(CCc1ccccc1)C(=O)c1ccc(Cl)cc1NS(=O)(=O)c1cccc2nsnc12`, the Ki in assay [1] is 0.316 µM; in assay [2], 3.98 µM.
The like results for `O=C(N[C@H](Cc1ccccc1)C(=O)O)c1ccc(Cl)cc1NS(=O)(=O)c1cccc2nsnc12` were, in that order, 0.158 µM and 3.16 µM.
Take `O=C(N[C@@H](Cc1ccc(Cl)cc1)C(=O)O)c1ccc(Cl)cc1NS(=O)(=O)c1cccc2nsnc12`: the Ki in assay [1] was 0.0631 µM; in assay [2], 2 µM.
In assay [1], `O=C(NCC(c1ccc(Cl)cc1)c1ccc(Cl)cc1)c1ccc(Cl)cc1NS(=O)(=O)c1cccc2nsnc12` gave a Ki greater than 10 µM.
With `O=C(NCCc1ccccc1)c1ccc(Br)cc1NS(=O)(=O)c1cccc2nsnc12`, the values for the Ki in assay [1] and in assay [2] were 0.631 µM and 0.398 µM, respectively.
With `O=C(NCCCc1ccccc1)c1ccc(Cl)cc1NS(=O)(=O)c1cccc2nsnc12`, the Ki was 1 µM in assay [1] and 2 µM in assay [2].
The compound `CC(CNC(=O)c1ccc(Cl)cc1NS(=O)(=O)c1cccc2nsnc12)c1ccc(Cl)cc1` (racemic) showed a Ki in assay [2] of 0.1 µM.
For `C[C@H](c1ccc(Cl)c(Cl)c1)[C@@H](NC(=O)c1ccc(Cl)cc1NS(=O)(=O)c1cccc2nsnc12)C(=O)O`, the Ki in assay [1] is 1.58 µM; in assay [2], 0.2 µM.
Compound `O=C(N[C@H](C(=O)O)C(c1ccc(Cl)cc1)c1ccc(Cl)cc1)c1ccc(Cl)cc1NS(=O)(=O)c1cccc2nsnc12` had a Ki in assay [2] greater than 10 µM.
The same measure, in the same setting: the result for `O=C(NCc1ccccc1)c1ccc(Cl)cc1NS(=O)(=O)c1cccc2nsnc12` reads greater than 10 µM.
Turning to `O=C(NCCc1ccccc1)c1ccc(Cl)cc1NS(=O)(=O)c1cccc2nsnc12`, the values for the Ki in assay [1] and in assay [2] were 6.31 µM and 0.158 µM, respectively.
The like results for `O=C(NCCc1ccc(Cl)c(Cl)c1)c1ccc(Cl)cc1NS(=O)(=O)c1cccc2nsnc12` were, in that order, 7.94 µM and 0.0794 µM.
The like results for `O=C(N[C@@H](Cc1ccccc1)C(=O)O)c1ccc(Cl)cc1NS(=O)(=O)c1cccc2nsnc12` were, in that order, 0.0794 µM and 3.98 µM.
With `O=C(N[C@H](Cc1ccc(Cl)cc1)C(=O)O)c1ccc(Cl)cc1NS(=O)(=O)c1cccc2nsnc12`, the Ki is 0.631 µM in assay [1] and 0.316 µM in assay [2].
The like results for `O=C(NCCc1ccc(Cl)cc1)c1ccc(Cl)cc1NS(=O)(=O)c1cccc2nsnc12` were, in that order, greater than 10 µM and 1 µM.
